From publication PMC8772772, “Enantioselective Synthesis and Pharmacological Evaluation of Aza-CGP37157–Lipoic Acid Hybrids for the Treatment of Alzheimer’s Disease” (Antioxidants, 2022)
Read-outs that look alike come from different tables or passages of the source.

Key:
[1] = Cytotoxicity in SH-SY5Y cell line (MTT); assay type: cell-based; settings: human; SH-SY5Y, 10, 30 and 100 μM, 24 h, MTT; read-out: CC50
Description: SH-SY5Y human neuroblastoma cells were seeded in 96-well clear multi-well plates (6 × 10^4 cells/well). Cells were treated with increasing concentrations of compounds (10, 30 and 100 μM) for 24 h. Thereafter, viability was assessed by the MTT method. Cytotoxic concentration to observe 50% mortality (CC50) values for compounds were interpolated from dose–response curves represented as percentage of cell death vs. concentration of compound, fitted by non-linear regression and data interpolated to value 50.
(§1) The tetrazolium ring of MTT can be cleaved by active dehydrogenases to produce a formazan precipitate. At the end of the experiments, MTT (SigmaAldrich, M2003) stock solution was added to each well to achieve a final concentration of 0.5 mg/mL. Cells were incubated for 2 h. Thereafter, culture media was removed, and DMSO was added to each well to dissolve the formazan precipitate. Finally, absorbance was measured in a microplate reader (SPECTROstar nano, BMG Labtech) at 570 nm. Absorbance obtained in basal conditions was considered as 100% cell viability.
In order to evaluate the potential pharmacological profile of new compounds, we first tested the potential neurotoxicity in the neuroblastoma SHSY5Y cell line. Toxicity was evaluated at increasing concentrations (10, 30 and 100 μM), and toxicity was measured as MTT reduction capability. CC50 values were calculated by non-linear regression of curves % survival vs. concentration (Supplementary Materials Figure S2). CGP37157 and previously studied racemic derivatives rac-3a and (rac,R)-3b were included as reference compounds. As previously described, LA is a non-neurotoxic compound at the concentrations texted.

[2] = system: SH-SY5Y neuroblastoma cells; test: Neuroprotection against rotenone/oligomycin A oxidative stress in SH-SY5Y cells (MTT); assay type: cell-based, human; settings: compound 1 μM 24 h, then compound + R/O (30/10 μM) 24 h; for % Survival: basal = 100, R/O alone 53.4
Description: Human neuroblastoma SH-SY5Y cells were plated in 96-well clear multi-well plates (6 × 10^4 cells/well). The potential neuroprotective activity of compounds against OS was evaluated using the rotenone (30 μM) (SigmaAldrich, R8875) and oligomycin A (10 μM) (SigmaAldrich, 75351) (R/O) toxic mixture. Neuroprotection activity against Tau hyperphosphorylation was evaluated by using the okadaic acid (20 nM) model. Cells were pre-incubated with each compound (1 µM) for 24 h, and then treatments were removed and cells were incubated with compounds (1 µM) in the presence the corresponding toxic for additional 24 h. At the end of the experiments, viability was determined by the MTT method. Data were normalized from cell death induced by the toxic stimuli (considered as 100% cell death). Then, the protection percentages were calculated by subtracting from the death induced by toxic stimuli, the death in the presence of the compound.
as §1
Thus, we selected a pre-incubation protocol to evaluate their potential neuroprotective capacity based on the NRF2-induction activity and direct antioxidant effect. Compound pre-incubation would induce the expression of antioxidant enzymes regulated by the phase II antioxidant response, thus promoting cells’ survival. The co-incubation period would also evaluate their capacity to trap free radicals produced by intoxicated mitochondria. SH-SY5Y neuroblastoma cells were treated with compounds (1 µM) during 24 h, and then cells were co-incubated with the corresponding compound at the same concentration and the R/O combination (30/10 µM) for additional 24 h. Melatonin, a well-known antioxidant natural neurohormone, was included as a positive control (1 µM). Previously reported racemic derivatives (rac-3a and (rac,R)-3b) and their precursors ((±)-6, R-6 and S-6) were included for comparative purposes at the same concentration.

[3] = parameters: method as in PMID 31693218; settings: cited from earlier work; for DPPH Scavenging at 100 µM, %: compound 100 µM; for DPPH Scavenging at 1mM, %: compound 1 mM
[4] = system: NRF2; settings: AREc32 cells, cited from earlier work; for CD (concentration required to double the specific luciferase activity): 24 h, Table S1, ref [3] of the supplement; for CD (concentration to double luciferase expression): previous results
[5] = system: primary glial cultures; parameters: method as in PMID 31693218; settings: primary glial cultures stimulated by LPS; cited from earlier work
[6] = system: SH-SY5Y cell line; parameters: method as in PMID 21989390; settings: at the concentrations tested; cited from earlier work
[7] = system: NRF2; test: NRF2 induction, luciferase expression in AREc32 cell line; assay type: cell-based; settings: AREc32 cells, 0.3, 3, 10 and 30 μM (LA: 0.1–0.6 mM), 24 h; mean ± SEM
Description: AREc32 cell line was kindly shared by Professor Roland Wolf (University of Dundee, UK). AREc32 cells were maintained in DMEM/glutamax/high glucose (Gibco, 61965-06, Madrid, Spain), supplemented with 1% penicillin–streptomycin (10,000 units) (SigmaAldrich, P4333, Madrid, Spain), geneticin (0.8 mg/mL) (Gibco, 11811-031) and 10% FBS (Gibco, 10270106), at 37 °C in a 5% CO2 air atmosphere. Cells were used from passage 4 to 18, and mycoplasma contamination was tested every 4 weeks. AREc32 cells were seeded in 96-well white plates (2 × 10^4 cells/well) for 24 h. Thereafter, cells were treated with each compound (0.3, 3, 10 and 30 µM) in duplicate for 24 h. Non-treated cells were included as basal luciferase expression and tert-butylhydroquinone (TBHQ, 10 μM) as positive control in each plate. Luciferase expression was evaluated by using the Luciferase Assay System (Promega, E1483, Madrid, Spain) by luminescence in an Orion II microplate luminometer (Berthold, Germany). Luciferase activity increase was normalized to basal conditions considered as 1. CD values (concentration required to double the luciferase activity) were calculated from dose–response curves of luciferase fold induction vs. compound concentration, fitted by non-linear regression and data interpolated to value 2.
To evaluate the influence of both stereogenic centers in the NRF2 induction capacity of aza-CGP37157-LA hybrids, we used the AREc32 cell line model by analyzing luciferase expression upon treatment with NRF2 inducers. AREc32 cells were exposed to increasing concentrations of tested compounds 7a–d (0.3, […], 10 and 30 μM) during 24 h; thereafter, luciferase expression was evaluated by luminescent assay to calculate the corresponding CD value (concentration to double luciferase expression). […] TBHQ was included as a positive control, and CGP37157, S- and R-LA, rac-3a and (rac,R)-3b and precursors derivatives (R-6 and S-6) were included for comparative purposes. […] Once R-LA is reduced, it might activate the phase II antioxidant response by acting as pro-oxidant over key Cys residues at KEAP1 to generate the corresponding lipoyl-cystinyl disulphide.

[8] = system: BV2 microglial cells; test: Nitrite production reduction in LPS-stimulated BV2 microglial cells (Griess); assay type: cell-based, mouse; settings: 24 h pretreatment 0.3, 3, 10, 30 μM, then compound + LPS 100 ng/mL 18 h, Griess
Description: BV2 microglial cells were seeded at 2 × 10^4 cells/well and treated with compounds at increasing concentrations during 24 h in complete culture media. Then, treatments were removed, and BV2 cells were co-incubated with compounds and LPS (100 ng/mL) (O127:B8, SigmaAldrich, L3129) for additional 18 h in culture media supplemented with 1% FBS. Each plate included non-treated cells as basal nitrite production. Thereafter, nitrite production was determined by using the modified Griess assay. In brief, samples (150 μL) were mixed with DAPSONE (75 μL) (SigmaAldrich, A74807) and NEDA (75 μL) (SigmaAldrich, 33461), and the mixture was incubated at room temperature for 5 min. Light absorption was measured at 550 nm in a microplate reader (SPECTROstar nano, BMG Labtech). Basal nitrite production was referred to as 100% of nitrite production, and all data were normalized to the basal condition. Concentration needed to reduce nitrite production to 50% was calculated from graphical representation of percentage of nitrite production vs. compound concentration, and data were fitted by non-linear regression and interpolated to 50%.
Chronic neuroinflammation is considered a key pathological event in the early stages of AD development. Among immune cells present at CNS, microglia is related to host defense and tissue repair. Nonetheless, chronic neuroinflammation induced by an adverse environment of protein aggregates and exacerbated OS induces a neurotoxic activity of microglia that, finally, leads to neuronal death. […] To this end, we selected the BV2 microglial cell model stimulated by lipopolysaccharide (LPS), a TLR4 agonist that activates the pro-inflammatory response. CGP37157, R- and S-LA; analogue compounds rac-3a and (rac,R)-3b; and precursor derivatives 6 were included with comparative and reference purposes. Microglial BV2 cells were treated with increasing concentrations of the corresponding compound (0.3, 3, 10 and 30 µM) for 24 h following a pre-incubation protocol. Thereafter, treatments were exchanged by a combination of the corresponding compound at desired concentration and LPS (100 ng/mL) during 18 h. At the end of this period, nitrite production was evaluated by the Griess method as an indirect measurement of iNOS enzyme expression and BV2 activation.

[9] = system: mitochondrial lipoamide dehydrogenase; parameters: method as in PMID 8573188; settings: cited from earlier work

Which CC50 at 24 h [1] does the source give for O=C1CN(CCOC(=O)CCCC[C@@H]2CCSS2)C(c2ccccc2Cl)c2cc(Cl)ccc2N1 (mixture of isomers) [(rac,R)-3b] here?
Its CC50 at 24 h is 76.2 ± 4.8 µM.

And the “% Protection” value [2]?
The value was 59.3%.

What about the “% Survival” value [2] of the same compound?
The value was 72.9 ± 3.5%.

What about the “DPPH Scavenging at 100 µM, %” value [3] of the same compound?
Its value is 8.7 ± 5.1 [19] %.

What about the “DPPH Scavenging at 1mM, %” value [3] of the same compound?
Its value is 30.7 ± 3.9 [19] %.

What about the “CD (concentration required to double the specific luciferase activity)” value [4] of the same compound?
The value was 9.8 ± 1.6 µM.

And the “CD (concentration to double luciferase expression)” value [4]?
The value was 9.8 ± 1.6 µM.

What about the “reduction of nitrite production” value [5] of the same compound?
Its value is “not active”.

Which neurotoxicity [6] does the source give for O=C(O)CCCCC1CCSS1 (centres unmarked) [LA, lipoic acid] here?
Its neurotoxicity is “non-neurotoxic”.

For O=C1CN(CCOC(=O)CCCCC2CCSS2)C(c2ccccc2Cl)c2cc(Cl)ccc2N1 (racemic) [rac-3a], which CC50 at 24 h [1] is on record?
The CC50 at 24 h was 97.1 ± 2.3 µM.

And the “% Protection” value [2]?
Its value is 52.1%.

And the “% Survival” value [2]?
Its value is 69.0 ± 5.6%.

What about the “DPPH Scavenging at 100 µM, %” value [3] of the same compound?
The value was 15.1 ± 3.4 [19] %.

What about the “DPPH Scavenging at 1mM, %” value [3] of the same compound?
Its value is 37.4 ± 3.8 [19] %.

What about the “CD (concentration required to double the specific luciferase activity)” value [4] of the same compound?
Its value is 14.8 ± 1.6 µM.

And the “CD (concentration to double luciferase expression)” value [4]?
The value was 14.8 ± 1.6 µM.

And the “reduction of nitrite production” value [5]?
The value was “able to reduce nitrite production”.

With O=C(O)CCCC[C@@H]1CCSS1 [(R) -Lipoic acid, (R)-Lipoic acid, reference compound] as the compound, how does the “CD (concentration required to double the specific luciferase activity)” value [7] read?
The value was greater than 600 µM.

What about the IC50 [8] of the same compound?
Its IC50 is greater than 30 µM.

And the “rate of conversion to dihydrolipoic acid relative to S-LA” value [9]?
The value was 28 times.
